What was measured:
[1] = target: Epidermal growth factor receptor (Homo sapiens, UniProt P00533)
[2] = target: Receptor tyrosine-protein kinase erbB-2 (Homo sapiens, UniProt P04626); test: Inhibition of human HER2
HT-29 = test: Antiproliferative activity against human HT29 cells
NCI-N87 [3] = test: Antiproliferative activity against human N87 cells; format: functional, cell-based
[4] = Drug level in BALB/c mouse plasma at 50 mg/kg, po after 4 hrs; format: ADME, organism-based; design: dose 50 mg/kg, route oral
[5] = Metabolic stability in mouse liver microsomes at 3 uM in presence of NADPH after 10 min; format: ADME, Microsome
A2780 = test: Antiproliferative activity against human A2780 cells; format: functional, cell-based
NCI-N87 [6] = test: animal or person; settings: Mus musculus, NCI-N87, po, 336 h, read-out: TGI
Description: Antitumor activity against human N87 cells xenografted in athymic mouse at 180 mg/kg, po twice daily after 14 days

[7] = Plasma clearance in BALB/c mouse at 10 mg/kg, iv; format: ADME, organism-based; design: dose 10 mg/kg, route intravenous
NCI-N87 [8] = test: animal or person; settings: Mus musculus, NCI-N87, po, 336 h, read-out: TGI; remark: listed apart in the source
Description: (§1) Antitumor activity against human N87 cells xenografted in athymic mouse at 135 mg/kg, po twice daily after 14 days

[9] = Volume of distribution at steady state in BALB/c mouse at 10 mg/kg, iv; format: ADME, organism-based; design: dose 10 mg/kg, route intravenous; settings: in vivo, read-out: Vss
NCI-N87 [10] = test: Antitumor activity against human N87 cells xenografted in athymic mouse at 90 mg/kg, po twice daily after 14 days; settings: 336 h, read-out: TGI
[11] = Cmax in BALB/c mouse at 90 mg/kg, po; format: ADME, organism-based; design: dose 90 mg/kg, route oral; settings: in vivo
[12] = Aqueous solubility at pH 3.9; format: physicochemical; settings: buffer
[13] = Tmax in BALB/c mouse at 90 mg/kg, po; format: ADME, organism-based; design: dose 90 mg/kg, route oral; settings: in vivo
[14] = Antitumor activity against human GEO cells xenografted in athymic mouse at 90 mg/kg, po twice daily after 14 days; settings: 336 h, read-out: TGI
[15] = Toxicity in human N87 cells xenografted athymic mouse; format: organism-based, NCI-N87; settings: in vivo
[16] = Aqueous solubility in phosphate buffer at pH 7.5; format: physicochemical
[17] = AUC in BALB/c mouse at 90 mg/kg, po; format: ADME, organism-based; design: dose 90 mg/kg, route oral; settings: plasma
[18] = Oral bioavailability in BALB/c mouse at 90 mg/kg, po; format: ADME, organism-based; settings: in vivo
NCI-N87 [19] = test: animal or person; settings: Mus musculus, NCI-N87, po, 336 h, read-out: TGI; remark: listed apart in the source
Description: as §1

[20] = Mortality in human N87 cells xenografted athymic mouse at 180 mg/kg, po; format: organism-based, NCI-N87; design: dose 180 mg/kg, route oral; settings: in vivo, read-out: Activity
[21] = Half life in BALB/c mouse at 10 mg/kg, iv; format: ADME, organism-based; design: dose 10 mg/kg, route intravenous; settings: in vivo
[22] = Mean residence time in BALB/c mouse at 10 mg/kg, iv; format: ADME, organism-based; design: dose 10 mg/kg, route intravenous; settings: in vivo
Plasma = test: Fraction unbound ligand in BALB/c mouse plasma; format: ADME, cell-free

Receptor tyrosine-protein kinase erbB-2, sequence (P04626 whole entry): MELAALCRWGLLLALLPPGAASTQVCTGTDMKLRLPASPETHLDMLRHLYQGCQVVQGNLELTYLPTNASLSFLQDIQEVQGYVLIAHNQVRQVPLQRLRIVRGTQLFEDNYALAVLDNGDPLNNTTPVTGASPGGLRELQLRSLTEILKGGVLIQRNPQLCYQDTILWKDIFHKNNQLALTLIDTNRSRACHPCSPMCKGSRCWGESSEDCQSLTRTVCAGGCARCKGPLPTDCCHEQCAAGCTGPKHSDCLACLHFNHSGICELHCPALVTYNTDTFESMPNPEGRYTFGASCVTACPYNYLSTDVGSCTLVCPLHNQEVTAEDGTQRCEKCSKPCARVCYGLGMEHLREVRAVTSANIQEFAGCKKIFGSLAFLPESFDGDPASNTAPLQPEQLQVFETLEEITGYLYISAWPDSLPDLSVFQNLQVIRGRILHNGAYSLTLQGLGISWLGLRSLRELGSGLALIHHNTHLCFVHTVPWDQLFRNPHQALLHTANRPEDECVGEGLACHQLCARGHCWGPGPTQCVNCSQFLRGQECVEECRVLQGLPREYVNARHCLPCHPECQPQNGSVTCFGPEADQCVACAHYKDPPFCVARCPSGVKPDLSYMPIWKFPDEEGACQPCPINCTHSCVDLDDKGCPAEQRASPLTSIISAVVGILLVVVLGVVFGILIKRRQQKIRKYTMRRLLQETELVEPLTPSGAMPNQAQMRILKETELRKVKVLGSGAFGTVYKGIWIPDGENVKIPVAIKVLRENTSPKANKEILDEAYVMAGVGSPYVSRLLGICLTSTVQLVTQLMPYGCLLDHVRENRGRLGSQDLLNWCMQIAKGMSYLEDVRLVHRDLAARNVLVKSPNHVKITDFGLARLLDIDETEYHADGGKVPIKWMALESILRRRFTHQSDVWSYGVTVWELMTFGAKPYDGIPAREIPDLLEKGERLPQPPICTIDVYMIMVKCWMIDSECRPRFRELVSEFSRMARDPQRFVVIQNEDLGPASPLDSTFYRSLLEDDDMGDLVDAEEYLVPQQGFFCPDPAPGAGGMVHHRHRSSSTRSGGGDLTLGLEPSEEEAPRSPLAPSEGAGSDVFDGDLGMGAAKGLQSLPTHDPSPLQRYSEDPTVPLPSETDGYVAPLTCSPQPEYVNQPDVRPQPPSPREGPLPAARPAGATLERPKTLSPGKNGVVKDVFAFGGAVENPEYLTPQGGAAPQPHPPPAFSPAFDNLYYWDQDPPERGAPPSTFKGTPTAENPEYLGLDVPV
Epidermal growth factor receptor, sequence (P00533 whole entry): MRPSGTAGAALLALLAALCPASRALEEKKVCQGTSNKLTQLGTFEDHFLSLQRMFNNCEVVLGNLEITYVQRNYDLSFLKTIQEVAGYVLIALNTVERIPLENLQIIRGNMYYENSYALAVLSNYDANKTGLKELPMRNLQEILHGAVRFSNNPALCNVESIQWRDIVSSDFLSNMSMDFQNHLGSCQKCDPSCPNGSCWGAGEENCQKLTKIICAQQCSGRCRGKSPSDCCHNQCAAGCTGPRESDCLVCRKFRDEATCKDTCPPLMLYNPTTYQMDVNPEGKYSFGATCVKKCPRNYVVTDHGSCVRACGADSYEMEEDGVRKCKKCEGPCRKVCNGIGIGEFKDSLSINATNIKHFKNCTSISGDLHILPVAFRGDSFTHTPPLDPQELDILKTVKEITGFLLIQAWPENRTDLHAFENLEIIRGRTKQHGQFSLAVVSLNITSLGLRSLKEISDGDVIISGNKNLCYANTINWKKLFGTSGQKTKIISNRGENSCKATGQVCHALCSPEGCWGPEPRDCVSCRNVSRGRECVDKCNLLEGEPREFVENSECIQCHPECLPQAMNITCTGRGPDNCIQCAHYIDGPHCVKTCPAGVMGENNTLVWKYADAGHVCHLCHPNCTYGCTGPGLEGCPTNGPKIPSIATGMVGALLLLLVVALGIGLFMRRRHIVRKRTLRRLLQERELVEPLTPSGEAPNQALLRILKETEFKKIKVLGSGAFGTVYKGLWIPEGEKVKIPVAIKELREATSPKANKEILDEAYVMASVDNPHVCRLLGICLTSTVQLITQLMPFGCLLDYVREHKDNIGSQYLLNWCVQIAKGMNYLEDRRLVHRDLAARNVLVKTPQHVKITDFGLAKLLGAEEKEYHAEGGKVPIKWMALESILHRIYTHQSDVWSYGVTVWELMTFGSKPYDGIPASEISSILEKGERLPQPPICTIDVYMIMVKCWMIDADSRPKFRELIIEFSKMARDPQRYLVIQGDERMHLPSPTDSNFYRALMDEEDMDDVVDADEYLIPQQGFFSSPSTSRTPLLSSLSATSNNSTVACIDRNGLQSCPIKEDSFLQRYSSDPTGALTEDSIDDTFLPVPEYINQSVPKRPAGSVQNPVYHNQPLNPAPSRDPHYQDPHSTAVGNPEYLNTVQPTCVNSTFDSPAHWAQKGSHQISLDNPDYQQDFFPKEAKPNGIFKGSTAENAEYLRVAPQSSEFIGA

Row | SMILES | IC50 [1] | IC50 [2] | IC50 (HT-29) | concentration at 4 h [4] | metabolic rate [5] | IC50 (NCI-N87 [3]) | also measured
1 | O=C1CNCCN(Cc2ccn3ncnc(Nc4ccc5c(cnn5Cc5cccc(F)c5)c4)c23)C1 | 780 nM | 39 nM | > 10000 nM | – | – | 650 nM | –
2 | CN(CCO)Cc1ccn2ncnc(Nc3ccc4c(cnn4Cc4cccc(F)c4)c3)c12 | – | – | – | – | – | 1200 nM | –
3 | O=C1CCN(Cc2ccn3ncnc(Nc4ccc5c(cnn5Cc5cccc(F)c5)c4)c23)CCN1 | 240 nM | 750 nM | > 10000 nM | 44 nM | 0.27 nmol/min/mg | 200 nM | –
4 | CC(=O)N1CCN(Cc2ccn3ncnc(Nc4ccc5c(cnn5Cc5cccc(F)c5)c4)c23)CC1 | 710 nM | 610 nM | – | 4100 nM | – | – | –
5 | CN1CCCN(Cc2ccn3ncnc(Nc4ccc5c(cnn5Cc5cccc(F)c5)c4)c23)CC1 | 130 nM | 120 nM | > 7900 nM | 93 nM | 0.21 nmol/min/mg | 620 nM | –
6 | O[C@@H]1CNCCN(Cc2ccn3ncnc(Nc4ccc5c(cnn5Cc5cccc(F)c5)c4)c23)C1 | 200 nM | 76 nM | > 10000 nM | 880 nM | 0.12 nmol/min/mg | 950 nM | –
7 | CS(=O)(=O)N1CCCN(Cc2ccn3ncnc(Nc4ccc5c(cnn5Cc5cccc(F)c5)c4)c23)CC1 | 210 nM | 120 nM | > 10000 nM | – | – | 330 nM | –
8 | CN1CCN(Cc2ccn3ncnc(Nc4ccc5c(cnn5Cc5cccc(F)c5)c4)c23)CC1 | 170 nM | 120 nM | – | 480 nM | – | 490 nM | –
9 | Cc1ccn2ncnc(Nc3ccc4c(cnn4Cc4cccc(F)c4)c3)c12 | – | – | > 10000 nM | 4100 nM | 0.14 nmol/min/mg | – | –
10 | COC(=O)C1CCN(Cc2ccn3ncnc(Nc4ccc5c(cnn5Cc5cccc(F)c5)c4)c23)CC1 | 1000 nM | > 1000 nM | > 10000 nM | 27 nM | – | > 5000 nM | –
11 | O=C(O)C1CCN(Cc2ccn3ncnc(Nc4ccc5c(cnn5Cc5cccc(F)c5)c4)c23)CC1 | – | 110 nM | > 10000 nM | 600 nM | 0.23 nmol/min/mg | > 5000 nM | –
12 | OCCNCc1ccn2ncnc(Nc3ccc4c(cnn4Cc4cccc(F)c4)c3)c12 | 45 nM | 47 nM | – | – | – | 1950 nM | –
13 | Fc1cccc(Cn2ncc3cc(Nc4ncnn5ccc(CN6CCCNCC6)c45)ccc32)c1 | 33 nM | 27 nM | > 3600 nM | 1300 nM | 0.05 nmol/min/mg | – | inhibition in vivo at 180 mg/kg (NCI-N87 [6]): 121%; clearance [7]: 39 mL/min/kg; inhibition in vivo at 135 mg/kg (NCI-N87 [8]): 111%; Vd [9]: 9.5 L/kg; inhibition in vivo at 90 mg/kg (NCI-N87 [10]): 97%; Cmax [11]: 7950 nM; Solubility [12]: 9.7 mg/kg; Tmax [13]: 3 h; inhibition in vivo at 90 mg/kg [14]: 90%; MTD [15]: 180 mg/kg; Solubility [16]: 0.012 mg/kg; AUC [17]: 48.9 µM·h; bioavailability [18]: 77%; inhibition in vivo at 135 mg/kg (NCI-N87 [19]): 78%; mortality [20]: 12%; half-life [21]: 3.7 h; MRT [22]: 4 h; PB (Plasma): 98.4%

The next lines start with results.

Row | IC50 [1] | IC50 [2] | IC50 (HT-29) | concentration at 4 h [4] | metabolic rate [5] | SMILES | IC50 (NCI-N87 [3]) | also measured
14 | 90 nM | 81 nM | – | 6300 nM | 0 nmol/min/mg | Fc1cccc(Cn2ncc3cc(Nc4ncnn5ccc(CN6CCNCC6)c45)ccc32)c1 | 730 nM | –
15 | 130 nM | 74 nM | – | – | 0 nmol/min/mg | CC1CNCCN(Cc2ccn3ncnc(Nc4ccc5c(cnn5Cc5cccc(F)c5)c4)c23)C1 (configuration not stated) | 680 nM | IC50 (A2780): > 2100 nM
16 | 26 nM | 16 nM | > 10000 nM | 1510 nM | 0.12 nmol/min/mg | O[C@H]1CNCCN(Cc2ccn3ncnc(Nc4ccc5c(cnn5Cc5cccc(F)c5)c4)c23)C1 | 160 nM | –
17 | 140 nM | 310 nM | – | – | – | NC(=O)C1CCN(Cc2ccn3ncnc(Nc4ccc5c(cnn5Cc5cccc(F)c5)c4)c23)CC1 | 400 nM | –
18 | 500 nM | 360 nM | – | – | – | Fc1cccc(Cn2ncc3cc(Nc4ncnn5ccc(CN6CCCC6)c45)ccc32)c1 | – | –
19 | 190 nM | 170 nM | – | – | – | COC1CNCCN(Cc2ccn3ncnc(Nc4ccc5c(cnn5Cc5cccc(F)c5)c4)c23)C1 (configuration not stated) | 3700 nM | IC50 (A2780): > 5000 nM
20 | 68 nM | 63 nM | – | 250 nM | 0.29 nmol/min/mg | OC1CCN(Cc2ccn3ncnc(Nc4ccc5c(cnn5Cc5cccc(F)c5)c4)c23)CC1 | 140 nM | –
21 | 350 nM | 200 nM | > 10000 nM | – | – | O=C1CN(Cc2ccn3ncnc(Nc4ccc5c(cnn5Cc5cccc(F)c5)c4)c23)CCN1 | 520 nM | –
